Laboratory results reported in patent US20210330611A1, “THERAPY FOR NEUROLOGICAL DISEASES/DISORDERS” (priority 2020, published 2021).
Read-outs that look alike come from different tables or passages of the source.

Key:
primary rat microglia [1] = assay: Cell toxicity (dead cells, size <150 μm2) in coated fibrin (cFib) assay; conditions: primary microglia HTS;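 further: share of dead cells sized under 150 µm2 at 10 µM in fibrin-stimulated microglia HTS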
[2] = system: fibrin- and LPS-induced microglia activation; assay: cells; format: cell-based, rat
[3] = system: LPS-induced microglia activation; assay: Image-based assay of LPS-induced microglia activation (HTS and dose response); format: cell-based, rat; conditions: for inhibition at 10 µM: Rattus norvegicus, Microglia, read-out: LPS % inhibition
[4] = system: fibrin-induced microglia activation; assay: Image-based assay of fibrin-induced microglia activation (HTS and dose response); format: cell-based, rat; conditions: primary microglia HTS, fibrin stimulation; for inhibition at 10 µM: Rattus norvegicus, Microglia, read-out: Fibrin % inhibition
primary rat microglia [5] = system: primary rat microglia
[6] = fibrin assay, dead cells (size <150 μm2)
[7] = quadrant by fibrin and LPS inhibition, HTS at 10 μM
[8] = primary microglia HTS, LPS stimulation, compounds at 10 μM
[9] = fibrin stimulation, cell size <150 μm2 as marker of toxicity
[10] = classification by fibrin and LPS inhibition in HTS
[11] = cell size >800 μm2 as marker of activation
[12] = fibrin assay, dead cells (size <150 μm2), compounds at 10 μM
[13] = classification by fibrin and LPS inhibition, HTS at 10 μM
[14] = primary microglia HTS, LPS stimulation, compounds at 10 μM, 10 µM

## Cc1c(NC(=O)c2cccnc2)c(=O)n(-c2ccccc2)n1C [Nifenazone]
Primary rat microglia [1]; [6]
  Fibrin % cell toxicity: 85%
[2]; [7]
  Quadrant (FIG. 5b): Q2
[3]; [8]
  inhibition at 10 µM: 132%
[4]; compounds at 10 μM
  inhibition at 10 µM: 114%
Primary rat microglia [5]; rat
  LPS % cell toxicity: 78%

## CCC1(CC)C(=O)C=CNC1=O [Pyrithyldione]
Primary rat microglia [1]; [9]
  Fibrin % cell toxicity: 1%
[2]; [10]
  Quadrant (FIG. 5b): Q4
[3]; 48 h
  inhibition at 10 µM: 9%
[4]; [11]
  inhibition at 10 µM: -24%
Primary rat microglia [5]; rat
  LPS % cell toxicity: 0%

## Apramycin Sulfate
Primary rat microglia [1]; [6]
  Fibrin % cell toxicity: 1%
[2]; [7]
  Quadrant (FIG. 5b): Q4
[3]; [8]
  LPS % inhibition: 25%
[4]; compounds at 10 μM
  Fibrin % inhibition: 11%
Primary rat microglia [5]
  LPS % cell toxicity: 1%

## CC(CCc1ccc(O)cc1)NCCc1ccc(O)c(O)c1 (stereo not shown) [Dobutamine]
Primary rat microglia [1]; [12]
  Fibrin % cell toxicity: 1%
[2]; [13]
  Quadrant (FIG. 5b): Q4
[3]; [14]
  LPS % inhibition: −7%
[4]; compounds at 10 μM, 10 µM
  Fibrin % inhibition: −29%
Primary rat microglia [5]; rat
  LPS % cell toxicity: 0%

## NC[C@H]1O[C@H](O[C@H]2[C@H](O)[C@@H](O[C@H]3O[C@H](CO)[C@@H](O)[C@H](N)[C@H]3O)[C@H](N)C[C@@H]2N)[C@H](N)[C@@H](O)[C@@H]1O.O=S(=O)(O)O [Becanamycin Sulfate, Bekanamycin Sulfate]
Primary rat microglia [1]; [6]
  Fibrin % cell toxicity: 1%
[2]; [7]
  Quadrant (FIG. 5b): Q4
[3]; [8]
  LPS % inhibition: 16%
[4]; compounds at 10 μM
  Fibrin % inhibition: −10%
Primary rat microglia [5]
  LPS % cell toxicity: 0%

## Cyanocobalamin
Primary rat microglia [1]; [12]
  Fibrin % cell toxicity: 1%
[2]; [13]
  Quadrant (FIG. 5b): Q4
[3]; [8]
  LPS % inhibition: 11%
[4]; compounds at 10 μM
  Fibrin % inhibition: −1%
Primary rat microglia [5]
  LPS % cell toxicity: 0%

## CCN(CC)C(=O)c1ccc(O)c(OC)c1 [Etamivan]
Primary rat microglia [1]; [12]
  Fibrin % cell toxicity: 1%
[2]; [13]
  Quadrant (FIG. 5b): Q4
[3]; [8]
  inhibition at 10 µM: 16%
[4]; compounds at 10 μM
  inhibition at 10 µM: -16%
Primary rat microglia [5]; rat
  LPS % cell toxicity: 0%

## CCCCCCCCNC(C)C(O)c1ccc(SC(C)C)cc1 (stereo not shown) [Suloctidil]
Primary rat microglia [1]; [6]
  Fibrin % cell toxicity: 90%
[2]; [7]
  Quadrant (FIG. 5b): Q3
[3]; [8]
  inhibition at 10 µM: 3%
[4]; compounds at 10 μM
  inhibition at 10 µM: 112%
Primary rat microglia [5]; rat
  LPS % cell toxicity: 0%

## CC[N+](CC)(CC(=O)Nc1c(C)cccc1C)Cc1ccccc1 [Denatonium Benzoate]
Primary rat microglia [1]; [12]
  Fibrin % cell toxicity: 0%
[2]; [13]
  Quadrant (FIG. 5b): Q4
[3]; [8]
  inhibition at 10 µM: 12%
[4]; compounds at 10 μM
  inhibition at 10 µM: 2%
Primary rat microglia [5]; rat
  LPS % cell toxicity: 0%

## CC1(C)C(C=C(Cl)Cl)C1C(=O)OC(C#N)c1cccc(Oc2ccccc2)c1 (stereo not drawn) [Alpha-cypermethrin]
Primary rat microglia [1]; [6]
  Fibrin % cell toxicity: 1%
[2]; [7]
  Quadrant (FIG. 5b): Q4
[3]; [8]
  inhibition at 10 µM: 11%
[4]; compounds at 10 μM
  inhibition at 10 µM: -15%
Primary rat microglia [5]; rat
  LPS % cell toxicity: 0%

## CCCCC[C@H](O)/C=C/[C@@H]1[C@@H](C/C=C\CCCC(=O)O)[C@@H](O)C[C@H]1O [Dinoprost Tromethamine]
Primary rat microglia [1]; [12]
  Fibrin % cell toxicity: 1%
[2]; [13]
  Quadrant (FIG. 5b): Q4
[3]; [8]
  inhibition at 10 µM: 15%
[4]; compounds at 10 μM
  inhibition at 10 µM: 36%
Primary rat microglia [5]; rat
  LPS % cell toxicity: 0%

## CCCNC(C)C(=O)Nc1ccccc1C (stereo not shown) [Prilocaine]
Primary rat microglia [1]; [9]
  Fibrin % cell toxicity: 0%
[2]; [10]
  Quadrant (FIG. 5b): Q4
[3]; 48 h
  inhibition at 10 µM: 12%
[4]; [11]
  inhibition at 10 µM: -3%
Primary rat microglia [5]; rat
  LPS % cell toxicity: 0%

## CC1(C)S[C@@H]2[C@H](NC(=O)[C@H](NC(=O)N3CCNC3=O)c3ccccc3)C(=O)N2[C@H]1C(=O)O [Azlocillin Sodium]
Primary rat microglia [1]; [6]
  Fibrin % cell toxicity: 0%
[2]; [7]
  Quadrant (FIG. 5b): Q4
[3]; [14]
  LPS % inhibition: 17%
[4]; compounds at 10 μM, 10 µM
  Fibrin % inhibition: −5%
Primary rat microglia [5]; rat
  LPS % cell toxicity: 0%

## NS(=O)(=O)c1cc2c(cc1Cl)N=C(CSCc1ccccc1)NS2(=O)=O [Benzthiazide]
Primary rat microglia [1]; [6]
  Fibrin % cell toxicity: 1%
[2]; [7]
  Quadrant (FIG. 5b): Q4
[3]; [8]
  inhibition at 10 µM: 7%
[4]; compounds at 10 μM
  inhibition at 10 µM: -8%
Primary rat microglia [5]; rat
  LPS % cell toxicity: 0%

## CC(=O)OCC(CCn1cnc2cnc(N)nc21)COC(C)=O [Famciclovir]
Primary rat microglia [1]; [12]
  Fibrin % cell toxicity: 0%
[2]; [13]
  Quadrant (FIG. 5b): Q4
[3]; [8]
  inhibition at 10 µM: 14%
[4]; compounds at 10 μM
  inhibition at 10 µM: -22%
Primary rat microglia [5]; rat
  LPS % cell toxicity: 1%

## Cn1c([N+](=O)[O-])cnc1COC(N)=O [Ronidazole]
Primary rat microglia [1]; [9]
  Fibrin % cell toxicity: 1%
[2]; [10]
  Quadrant (FIG. 5b): Q4
[3]; 48 h
  inhibition at 10 µM: 20%
[4]; [11]
  inhibition at 10 µM: 31%
Primary rat microglia [5]; rat
  LPS % cell toxicity: 0%

## CCCOc1cc(N)ccc1C(=O)OCCN(CC)CC [Propoxycaine]
Primary rat microglia [1]; [9]
  Fibrin % cell toxicity: 0%
[2]; [10]
  Quadrant (FIG. 5b): Q4
[3]; 48 h
  inhibition at 10 µM: 14%
[4]; [11]
  inhibition at 10 µM: 13%
Primary rat microglia [5]; rat
  LPS % cell toxicity: 0%

## CCOc1ccc2nc(S(N)(=O)=O)sc2c1 [Ethoxzolamide]
Primary rat microglia [1]; [12]
  Fibrin % cell toxicity: 1%
[2]; [13]
  Quadrant (FIG. 5b): Q4
[3]; [8]
  inhibition at 10 µM: 16%
[4]; compounds at 10 μM
  inhibition at 10 µM: 29%
Primary rat microglia [5]; rat
  LPS % cell toxicity: 1%

## Cc1ccc(-c2ncc(Cl)cc2-c2ccc(S(C)(=O)=O)cc2)cn1 [Etoricoxib]
Primary rat microglia [1]; [12]
  Fibrin % cell toxicity: 1%
[2]; [13]
  Quadrant (FIG. 5b): Q4
[3]; [8]
  inhibition at 10 µM: -4%
[4]; compounds at 10 μM
  inhibition at 10 µM: 15%
Primary rat microglia [5]; rat
  LPS % cell toxicity: 0%

## Cc1nc2ccccn2c(=O)c1CCN1CCC(C(=O)c2ccc(F)cc2)CC1 [Pirenperone]
Primary rat microglia [1]; [9]
  Fibrin % cell toxicity: 1%
[2]; [10]
  Quadrant (FIG. 5b): Q4
[3]; 48 h
  inhibition at 10 µM: 20%
[4]; [11]
  inhibition at 10 µM: 2%
Primary rat microglia [5]; rat
  LPS % cell toxicity: 0%

## CC(C)NCC(O)COc1cccc2[nH]ccc12 (stereo not shown) [Pindolol]
Primary rat microglia [1]; [9]
  Fibrin % cell toxicity: 1%
[2]; [10]
  Quadrant (FIG. 5b): Q4
[3]; 48 h
  inhibition at 10 µM: 24%
[4]; [11]
  inhibition at 10 µM: -13%
Primary rat microglia [5]; rat
  LPS % cell toxicity: 1%

## C=CC[C@]1(O)CC[C@H]2[C@@H]3CCC4=CC(=O)CCC4=C3C=C[C@@]21C [Altrenogest]
Primary rat microglia [1]; [6]
  Fibrin % cell toxicity: 1%
[2]; [7]
  Quadrant (FIG. 5b): Q4
[3]; [8]
  inhibition at 10 µM: 15%
[4]; compounds at 10 μM
  inhibition at 10 µM: 6%
Primary rat microglia [5]; rat
  LPS % cell toxicity: 0%

## CCC1(c2ccccc2)C(=O)NC(=O)NC1=O [Phenobarbital]
Primary rat microglia [1]; [9]
  Fibrin % cell toxicity: 0%
[2]; [10]
  Quadrant (FIG. 5b): Q4
[3]; 48 h
  inhibition at 10 µM: -7%
[4]; [11]
  inhibition at 10 µM: -22%
Primary rat microglia [5]; rat
  LPS % cell toxicity: 0%

## CC(=O)[C@H]1CC[C@H]2[C@@H]3CC=C4C[C@@H](O)CC[C@]4(C)[C@H]3CC[C@]12C [Pregnenolone]
Primary rat microglia [1]; [9]
  Fibrin % cell toxicity: 1%
[2]; [10]
  Quadrant (FIG. 5b): Q4
[3]
  LPS % inhibition: 12%
[4]; [11]
  Fibrin % inhibition: −11%
Primary rat microglia [5]
  LPS % cell toxicity: 0%

## CC(=O)Oc1cccc2c1C(=O)c1c(OC(C)=O)cc(C(=O)O)cc1C2=O [Diacerin]
Primary rat microglia [1]; [12]
  Fibrin % cell toxicity: 1%
[2]; [13]
  Quadrant (FIG. 5b): Q4
[3]; [8]
  LPS % inhibition: 10%
[4]; compounds at 10 μM
  Fibrin % inhibition: −30%
Primary rat microglia [5]
  LPS % cell toxicity: 0%

## CN1C[C@H](C(=O)N[C@]2(C)O[C@@]3(O)[C@@H]4CCCN4C(=O)[C@H](Cc4ccccc4)N3C2=O)C=C2c3cccc4[nH]cc(c34)C[C@H]21 [Ergotamine]
Primary rat microglia [1]; [12]
  Fibrin % cell toxicity: 1%
[2]; [13]
  Quadrant (FIG. 5b): Q4
[3]; [14]
  LPS % inhibition: −4%
[4]; compounds at 10 μM, 10 µM
  Fibrin % inhibition: 6%
Primary rat microglia [5]; rat
  LPS % cell toxicity: 0%

## CC(=O)Oc1cccc(C(=O)O)c1OC(C)=O [Dipyrocetyl]
Primary rat microglia [1]; [12]
  Fibrin % cell toxicity: 1%
[2]; [13]
  Quadrant (FIG. 5b): Q4
[3]; [8]
  inhibition at 10 µM: 7%
[4]; compounds at 10 μM
  inhibition at 10 µM: -1%
Primary rat microglia [5]; rat
  LPS % cell toxicity: 0%

## Cc1ccccc1N1CCN(CCc2nnc3n2CCCC3)CC1 [Dapiprazole]
Primary rat microglia [1]; [12]
  Fibrin % cell toxicity: 1%
[2]; [13]
  Quadrant (FIG. 5b): Q4
[3]; [8]
  inhibition at 10 µM: 14%
[4]; compounds at 10 μM
  inhibition at 10 µM: -9%
Primary rat microglia [5]; rat
  LPS % cell toxicity: 0%

## CC/C=C\C/C=C\C/C=C\C/C=C\C/C=C\C/C=C\CCC(=O)O [Doconexent]
Primary rat microglia [1]; [12]
  Fibrin % cell toxicity: 1%
[2]; [13]
  Quadrant (FIG. 5b): Q4
[3]; [8]
  inhibition at 10 µM: 11%
[4]; compounds at 10 μM
  inhibition at 10 µM: 3%
Primary rat microglia [5]; rat
  LPS % cell toxicity: 0%
